Laboratory results from US12139492B2 (Endotarget Inc., priority 2021, dated 2024).
Read-outs that look alike come from different tables or passages of the source.

Tests used:
Mino cells = assay: Antiproliferative effect, MTS cell viability assay, Mino cells; type: cell-based; details: Homo sapiens, MINO, Mino mantle cell lymphoma cells; read-out: IC50 (anti-proliferation) Mino cells
Method in brief: (§1)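 Steps: seed B-cell lymphoma line; add compound at 0, 0.001, 0.01, 0.1, 1 or 10 μM; incubate 72 h; add MTS and read reduced tetrazolium (formazan) absorbance at 490 nm.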

BTK = BTK (Homo sapiens, UniProt Q06187); assay: Degradation of BTK protein in Namalwa cells (Western blot; DC50, Dmax); details: for DC50: cell line not given
JeKo-1 cells = assay: Antiproliferative effect, MTS cell viability assay, JeKo-1 cells; type: cell-based; details: Homo sapiens; JeKo-1 mantle cell lymphoma cells; read-out: IC50 (anti-proliferation) JeKO-1 cells
Method in brief: as §1

[1] = read-out: DC50 (BTK degradation), concentration giving 50% reduction of BTK expression level
[2] = read-out: Dmax (BTK degradation)

Sequence of BTK (Q06187 whole entry): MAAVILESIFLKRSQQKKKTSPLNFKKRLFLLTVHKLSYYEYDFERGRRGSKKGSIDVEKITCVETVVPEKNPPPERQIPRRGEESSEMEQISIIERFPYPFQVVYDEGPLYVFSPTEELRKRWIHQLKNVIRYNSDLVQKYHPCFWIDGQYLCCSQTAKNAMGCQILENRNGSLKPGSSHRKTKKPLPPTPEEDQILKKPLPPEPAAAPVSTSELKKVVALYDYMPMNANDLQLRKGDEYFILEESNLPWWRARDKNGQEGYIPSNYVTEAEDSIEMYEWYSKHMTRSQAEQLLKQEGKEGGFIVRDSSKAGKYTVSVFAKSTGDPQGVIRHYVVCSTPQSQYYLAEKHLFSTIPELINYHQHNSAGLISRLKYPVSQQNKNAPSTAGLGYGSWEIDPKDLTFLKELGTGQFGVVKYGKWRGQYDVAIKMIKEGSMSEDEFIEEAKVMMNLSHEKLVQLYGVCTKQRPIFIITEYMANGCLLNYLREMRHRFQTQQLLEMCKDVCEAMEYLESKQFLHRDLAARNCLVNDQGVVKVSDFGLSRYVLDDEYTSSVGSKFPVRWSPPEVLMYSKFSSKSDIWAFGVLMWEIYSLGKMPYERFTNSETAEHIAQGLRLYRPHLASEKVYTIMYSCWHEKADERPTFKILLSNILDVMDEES

## NC(=O)c1c(-c2ccc(Oc3ccccc3)cc2)nn2c1NCC[C@H]2C1CCN(CC2CCN(C(=O)N3CCN(CC4CCN(c5ccc6c(c5)CN(C5CCC(=O)NC5=O)C6=O)CC4)CC3)CC2)CC1 (stereo partly drawn) [Compound 412, (7S)-7-(1-((1-(4-((1-(2-(2,6-dioxopiperidin-3-yl)-1-oxoisoindolin-5-yl)piperidin-4-yl)methyl)piperazine-1-carbonyl)piperidin-4-yl)methyl)piperidin-4-yl)-2-(4-phenoxyphenyl)-4,5,6,7-tetrahydropyrazolo[1,5-a]pyrimidine-3-carboxamide]
Mino cells
  IC50: 1000 to 10000 nM
BTK; [1]
  DC50: 10 to 50 nM
BTK; [2]
  Dmax: > 90%
JeKo-1 cells
  IC50: < 1000 nM

## NC(=O)c1c(-c2ccc(Oc3ccccc3)cc2)nn2c1NCC[C@H]2C1CCN(CC2CCN(CC3CCN(c4ccc5c(c4)C(=O)N(C4CCC(=O)NC4=O)C5=O)CC3)CC2)CC1 (stereo partly drawn) [Compound 329, (7S)-7-(1-((1-((1-(2-(2,6-dioxopiperidin-3-yl)-1,3-dioxoisoindolin-5-yl)piperidin-4-yl)methyl)piperidin-4-yl)methyl)piperidin-4-yl)-2-(4-phenoxyphenyl)-4,5,6,7-tetrahydropyrazolo[1,5-a]pyrimidine-3-carboxamide]
Mino cells
  IC50: > 10000 nM
BTK
  Dmax: > 75%
BTK; BTK degradation
  DC50: 10 to 50 nM
JeKo-1 cells
  IC50: > 10000 nM

## NC(=O)c1c(-c2ccc(Oc3ccccc3)cc2)nn2c1NCC[C@H]2C1CCN(C2CCN(C(=O)N3CCN(c4ccc5c(c4)CN(C4CCC(=O)NC4=O)C5=O)CC3)CC2)CC1 (stereo partly drawn) [Compound 378, (7S)-7-(1′-(4-(2-(2,6-dioxopiperidin-3-yl)-1-oxoisoindolin-5-yl)piperazine-1-carbonyl)-[1,4′-bipiperidin]-4-yl)-2-(4-phenoxyphenyl)-4,5,6,7-tetrahydropyrazolo[1,5-a]pyrimidine-3-carboxamide]
Mino cells
  IC50: > 10000 nM
BTK
  Dmax: > 50%
BTK; BTK degradation
  DC50: > 50 nM
JeKo-1 cells
  IC50: > 10000 nM

## Nc1ncnc2c1c(-c1ccc(Oc3ccccc3)cc1)nn2C1CCN(C2CCN(CCN3CCN(c4ccc(N5CCC(=O)NC5=O)cc4)CC3)C2)CC1 (stereo not drawn) [Compound 575, 1-(4-(4-(2-(3-(4-(4-amino-3-(4-phenoxyphenyl)-1H-pyrazolo[3,4-d]pyrimidin-1-yl)piperidin-1-yl)pyrrolidin-1-yl)ethyl)piperazin-1-yl)phenyl)dihydropyrimidine-2,4(1H,3H)-dione]
Mino cells
  IC50: 1000 to 10000 nM
BTK; [1]
  DC50: < 10 nM
BTK; [2]
  Dmax: > 90%
JeKo-1 cells
  IC50: 1000 to 10000 nM

## Nc1ncnc2c1c(-c1ccc(Oc3ccccc3)cc1)nn2C1CCN(C2CCN(C(=O)N3CCC(CCCC4CCN(c5ccc6c(c5)C(=O)N(C5CCC(=O)NC5=O)C6=O)CC4)CC3)CC2)CC1 (stereo not drawn) [Compound 265, 5-(4-(3-(1-(4-(4-amino-3-(4-phenoxyphenyl)-1H-pyrazolo[3,4-d]pyrimidin-1-yl)-[1,4′-bipiperidine]-1′-carbonyl)piperidin-4-yl)propyl)piperidin-1-yl)-2-(2,6-dioxopiperidin-3-yl)isoindoline-1,3-dione]
Mino cells
  IC50: 1000 to 10000 nM
BTK
  Dmax: > 75%
BTK; BTK degradation
  DC50: 10 to 50 nM
JeKo-1 cells
  IC50: 1000 to 10000 nM

## NC(=O)c1c(-c2ccc(Oc3ccccc3)cc2)nn2c1NCC[C@H]2C1CCN(C(=O)N2CCN(CC3CCN(c4ccc5c(c4)C(=O)N(C4CCC(=O)NC4=O)C5=O)CC3)CC2)CC1 (stereo partly drawn) [Compound 289, (7S)-7-(1-(4-((1-(2-(2,6-dioxopiperidin-3-yl)-1,3-dioxoisoindolin-5-yl)piperidin-4-yl)methyl)piperazine-1-carbonyl)piperidin-4-yl)-2-(4-phenoxyphenyl)-4,5,6,7-tetrahydropyrazolo[1,5-a]pyrimidine-3-carboxamide]
Mino cells
  IC50: 1000 to 10000 nM
BTK
  Dmax: > 90%
BTK; BTK degradation
  DC50: 10 to 50 nM
JeKo-1 cells
  IC50: < 1000 nM
